From patent US4755594A, “N^6 -substituted adenosines” (Warner-Lambert Company, priority 1986, dated 1988)

Key:
[1] = Mouse Activity and Screen Test Procedure (MAST): inhibition of spontaneous locomotion; assay type: in vivo, Swiss-Webster male mice; conditions: IP, 1 h, read-out: Inhibition of motor activity
Text: The compounds of the invention are new chemical substances which are useful as pharmaceutical agents for the treatment of psychoses. The antipsychotic activity of representative compounds of the invention was established by the Mouse Activity and Screen Test Procedure (MAST) described below. Animals Nine unfasted Swiss-Webster male mice weighing 20-30 g are equally divided into three groups for each drug dose to be tested. That is, data for each dose level was generated by three separate groups of three mice each. Drugs A minimum of three dose levels (10, 30, and 100 mg/kg) are tested for each drug. Treatments are administered intraperitoneally one hour prior to testing. All dosages are calculated as parent compound and given in volumes of 10 ml/kg. Compounds are dissolved or suspended in 0.2% Methocel. Control animals are injected with Methocel. Testing A two part testing procedure is started one hour postinjection. First, the screen test (ST) is performed (see Pharmac. Biochem. Behav. 6, 351-353, 1977). Briefly this test consists of placing mice on individual wire screens which are then rotated 180 degrees at the start of a 60 second observation period. The number of mice falling off the inverted screen is recorded. Immediately following the screen test, the final phase of testing is initiated by placing each group of three mice in one actophotometer (Life Sciences, 22, 1067-1076, 1978). The actophotometer consists of a cylindrical chamber whose center is occupied by another cylinder which contains the illumination for six photocells located on the perimeter of the chamber. Six light-beam interruptions equal one count. Locomotor activity is recorded by computer at ten minute intervals for 60 minutes. Data The data obtained from the screen test are expressed as percent of mice falling off the screen. Data derived from locomotor activity of drug treated mice are compared to the activity of vehicle treated animals and are expressed as percent inhibition of spontaneous locomotion. All percentages reported for inhibition of locomotion (LI) are based upon data accumulated for one hour. Both phases of testing are graded: A=60-100%; C=31-59%; and N=0-30%. An overall dose rating is obtained by the following criteria: […]

[2] = Conditioned shock avoidance (SIDSM), antipsychotic; assay type: in vivo, squirrel-monkeys; conditions: Primates; squirrel-monkey; read-out: ED50 in the SIDSM protocol
Experimental: (§1) Representative compounds of the invention (identified in the Examples) were also tested for antipsychotic activity according to the following protocol (SIDR or SIDSM). The noted compound has the indicated ED50 values (mg/kg) and is considered active as an antipsychotic agent in the test procedure.
(§2) Mature male Long-Evans rats (SIDR) or squirrel-monkeys (SIDSM) are conditioned to push a lever in order to avoid a painful electric footshock. If the animals fails to push the lever, he receives a shock every ten seconds until the lever is pushed. Shocks can be terminated by pushing the lever. Thereafter, as long as the lever is pushed at least once every 20 seconds, there will be no shock.
(§3) Each animal acts as its own control; one weekly session is used to establish baseline behavior and another session later in the week is used as a drug session. Once patterns of avoidance are established, the effects of standard and unknown compounds are studied.

[3] = Conditioned shock avoidance (SIDR), antipsychotic; assay type: in vivo, male Long-Evans rats; conditions: Rattus norvegicus; read-out: ED50 in the SIDR protocol
Experimental: as §1, §2, §3

OC[C@H]1O[C@@H](n2cnc3c(NCC4(c5ccccc5)CCCC4)ncnc32)[C@H](O)[C@@H]1O [Example 10, N6-((1-Phenylcyclopentyl)methyl)adenosine]
inhibition in vivo at 3 mg/kg [1]: -7%
inhibition in vivo at 10 mg/kg [1]: 12%
inhibition in vivo at 30 mg/kg [1]: 49%

OC[C@H]1O[C@@H](n2cnc3c(NCC4(c5ccccc5)CCCCC4)ncnc32)[C@H](O)[C@@H]1O [Example 11, N6-((1-Phenylcyclohexyl)methyl)adenosine]
inhibition in vivo at 3 mg/kg [1]: 15%
inhibition in vivo at 10 mg/kg [1]: -10%
inhibition in vivo at 30 mg/kg [1]: 34%

O[C@@H]1[C@H](O)[C@@H](CCl)O[C@H]1n1cnc2c(NCC3(c4ccccc4)CC3)ncnc21 [Example 5, 5'-Deoxy-5'-chloro-N6-((1-phenylcyclopropyl)methyl)adenosine]
inhibition in vivo at 3 mg/kg [1]: 16%
inhibition in vivo at 10 mg/kg [1]: 10%
inhibition in vivo at 30 mg/kg [1]: -4%

OC[C@H]1O[C@@H](n2cnc3c(NCC4(c5cccs5)CC4)ncnc32)[C@H](O)[C@@H]1O [Example 3, N6-((1-Thien-2-ylcyclopropyl)methyl)adenosine]
inhibition in vivo at 0.03 mg/kg ([1]; 0.03 mg/kg): 17%
inhibition in vivo at 0.1 mg/kg ([1]; 0.1 mg/kg): 40%
inhibition in vivo at 0.3 mg/kg [1]: 70%
inhibition in vivo at 1 mg/kg [1]: 85%
inhibition in vivo at 3 mg/kg [1]: 89%
inhibition in vivo at 10 mg/kg [1]: 93%

OC[C@H]1O[C@@H](n2cnc3c(NCC4(c5cccs5)CCC4)ncnc32)[C@H](O)[C@@H]1O [Example 9, N6-((1-Thien-2-ylcyclobutyl)methyl)adenosine]
inhibition in vivo at 3 mg/kg [1]: 43%
inhibition in vivo at 10 mg/kg [1]: 86%
inhibition in vivo at 30 mg/kg [1]: 94%

OC[C@H]1O[C@@H](n2cnc3c(NCC4(c5cccc(Cl)c5)CC4)ncnc32)[C@H](O)[C@@H]1O [Example 2, N6-((1-(3-Chlorophenyl)cyclopropyl)methyl)adenosine]
inhibition in vivo at 3 mg/kg [1]: 19%
inhibition in vivo at 10 mg/kg [1]: 69%
inhibition in vivo at 30 mg/kg [1]: 90%

OC[C@H]1O[C@@H](n2cnc3c(NCC4(c5ccc(Cl)cc5)CC4)ncnc32)[C@H](O)[C@@H]1O [Example 12, N6-((1-(4-Chlorophenyl)cyclopropyl)methyl)adenosine]
inhibition in vivo at 3 mg/kg [1]: -4%
inhibition in vivo at 10 mg/kg [1]: 5%
inhibition in vivo at 30 mg/kg [1]: 20%

O[C@@H]1[C@H](O)[C@@H](CCl)O[C@H]1n1cnc2c(NCC3(c4cccs4)CC3)ncnc21 [Example 6, 5'-Chloro-5'-deoxy-N6-((1-thien-2-ylcyclopropyl)methyl)adenosine]
inhibition in vivo at 3 mg/kg [1]: 11%
inhibition in vivo at 10 mg/kg [1]: 16%
inhibition in vivo at 30 mg/kg [1]: 51%

OC[C@H]1O[C@@H](n2cnc3c(NCC4(c5ccccc5)CCC4)ncnc32)[C@H](O)[C@@H]1O [Example 7, N6-((1-Phenylcyclobutyl)methyl)adenosine]
inhibition in vivo at 1 mg/kg [1]: 5%
inhibition in vivo at 3 mg/kg [1]: 21%
inhibition in vivo at 10 mg/kg [1]: 82%

OC[C@H]1O[C@@H](n2cnc3c(NCC4(c5cccc(Cl)c5)CCC4)ncnc32)[C@H](O)[C@@H]1O [Example 8, N6-((1-(3-Chlorophenyl)cyclobutyl)methyl)adenosine]
inhibition in vivo at 3 mg/kg [1]: 22%
inhibition in vivo at 10 mg/kg [1]: 35%
inhibition in vivo at 30 mg/kg [1]: 73%

OC[C@H]1O[C@@H](n2cnc3c(NCC4(c5ccccc5)CC4)ncnc32)[C@H](O)[C@@H]1O [Example 1, N6-((1-Phenylcyclopropyl)methyl)adenosine]
ED50 [2]: 0.52 mg/kg
ED50 [3]: 0.55 mg/kg
inhibition in vivo at 0.3 mg/kg [1]: 43%
inhibition in vivo at 1 mg/kg [1]: 48%
inhibition in vivo at 3 mg/kg [1]: 38%
inhibition in vivo at 10 mg/kg [1]: 92%
inhibition in vivo at 30 mg/kg [1]: 98%
inhibition in vivo at 100 mg/kg ([1]; 100 mg/kg): 100%
